T/C data for 19 molecules are collected here from PubChem BioAssay AID330 (DTP/NCI, 2004).

The assay deals with P388 leukemia ip, CD2F1 mice, survival T/C. The experiment in a line: NCI In Vivo Anticancer Drug Screen. Data for tumor model P388 Leukemia (intraperitoneal) in CD2F1 (CDF1) mice. The conditions noted are these: endpoint: median survival time, higher = longer survival. In outline: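 Mice carrying the transplanted tumor received test compound or vehicle. Survival was recorded in each group, and the value is the treated-group measurement divided by that of the vehicle-treated control group.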

Setting [1] is: dose: 50.0 mg/kg/injection, schedule: Q01DX009 (ip), vehicle: Klucel (hydroxypropylcellulose) (HPC).
Setting [2] is: dose: 100.0 mg/kg/injection, schedule: Q01DX009 (ip), vehicle: Klucel (hydroxypropylcellulose) (HPC).
Where [3] appears, read: dose: 200.0 mg/kg/injection, schedule: Q01DX009 (ip), vehicle: Klucel (hydroxypropylcellulose) (HPC).
The mark [4] stands for this setting: dose: 400.0 mg/kg/injection, schedule: Q01DX009 (ip), vehicle: Klucel (hydroxypropylcellulose) (HPC).
[5] abbreviates: dose: 50.0 mg/kg/injection, schedule: Q01DX009 (ip), vehicle: saline with Tween-80.
The mark [6] stands for this setting: dose: 100.0 mg/kg/injection, schedule: Q04DX002 (ip), vehicle: Klucel (hydroxypropylcellulose) (HPC).
Where [7] appears, read: dose: 200.0 mg/kg/injection, schedule: Q04DX002 (ip), vehicle: saline with Tween-80.
The mark [8] stands for this setting: dose: 50.0 mg/kg/injection, schedule: Q01DX005 (ip), vehicle: saline.
The mark [9] stands for this setting: dose: 100.0 mg/kg/injection, schedule: Q01DX005 (ip), vehicle: saline.
Setting [10] is: dose: 200.0 mg/kg/injection, schedule: Q01DX005 (ip), vehicle: saline.
[11] abbreviates: dose: 50.0 mg/kg/injection, schedule: Q01DX005 (ip), vehicle: saline with Tween-80.
Setting [12] is: dose: 100.0 mg/kg/injection, schedule: Q01DX005 (ip), vehicle: saline with Tween-80.
The mark [13] stands for this setting: dose: 12.5 mg/kg/injection, schedule: Q01DX009 (ip), vehicle: saline with Tween-80.
The mark [14] stands for this setting: dose: 25.0 mg/kg/injection, schedule: Q01DX009 (ip), vehicle: saline with Tween-80.

Where “and” joins values, the source holds several entries; their conditions need not be identical. Identical values can stand only once. Toxic doses and inconclusive results are not listed. Square brackets hold non-standard residues; d marks the D form. Peptide text beside a SMILES is read from it. * marks the point of attachment. Cbz = O=C(OCc1ccccc1)*; Nva = CCC[CH](N)C(=O)O

With `N#CCC[P+](CCC#N)(CCC#N)CCN1C(=O)c2ccccc2C1=O`, the T/C was 96 % of control (dose: 0.78 mg/kg/injection, schedule: Q01DX009 (ip), vehicle: water); 89 % of control (dose: 1.56 mg/kg/injection, schedule: Q01DX009 (ip), vehicle: water); 100 % of control (dose: 3.13 mg/kg/injection, schedule: Q01DX009 (ip), vehicle: water); 115 % of control (dose: 6.25 mg/kg/injection, schedule: Q01DX009 (ip), vehicle: water); 108 % of control (dose: 12.5 mg/kg/injection, schedule: Q01DX009 (ip), vehicle: water); 102 % of control and 117 % of control (dose: 25.0 mg/kg/injection, schedule: Q01DX009 (ip), vehicle: water). In addition, the T/C is, setting by setting: (dose: 50.0 mg/kg/injection, schedule: Q01DX009 (ip), vehicle: water) 100 % of control; (dose: 100.0 mg/kg/injection, schedule: Q01DX009 (ip), vehicle: water) 100 % of control; (dose: 200.0 mg/kg/injection, schedule: Q01DX009 (ip), vehicle: water) 101 % of control.

As for `O=NN(CCCl)C(=O)Nc1c[nH]c2ccccc12`, the T/C by setting is: (dose: 25.0 mg/kg/injection, schedule: Q01DX009 (ip), vehicle: Klucel (hydroxypropylcellulose) (HPC)) 157 % of control; under setting [1], 159 % of control and 166 % of control; under setting [2], 166 % of control and 176 % of control; under setting [3], 166 % of control and 175 % of control; under setting [4], 166 % of control and 176 % of control.

For the molecule `CCOC1=CC(=O)/C(=C/O[Si](C)(C)C)CC1`, the T/C was 103 % of control under setting [5] and 99 % of control (dose: 100.0 mg/kg/injection, schedule: Q01DX009 (ip), vehicle: saline with Tween-80).

Take `C=C(C(=O)OC1C/C(C)=C/C(O)C/C(C)=C/C2OC(=O)C(=C)C21)C(C)O` (centres undefined): the T/C runs as follows: (dose: 25.0 mg/kg/injection, schedule: Q04DX002 (ip), vehicle: Klucel (hydroxypropylcellulose) (HPC)) 109 % of control; (dose: 25.0 mg/kg/injection, schedule: Q04DX002 (ip), vehicle: saline with Tween-80) 110 % of control; (dose: 50.0 mg/kg/injection, schedule: Q04DX002 (ip), vehicle: Klucel (hydroxypropylcellulose) (HPC)) 117 % of control; (dose: 50.0 mg/kg/injection, schedule: Q04DX002 (ip), vehicle: saline with Tween-80) 102 % of control; under setting [6], 117 % of control; under setting [7], 124 % of control.

With `C[Si](C)(C)O/C=C1/CCOC1=O`, the T/C (dose: 50.0 mg/kg/injection, schedule: Q01DX009 (ip), vehicle: saline) was 100 % of control and 87 % of control; the T/C (dose: 100.0 mg/kg/injection, schedule: Q01DX009 (ip), vehicle: saline) is 98 % of control and 104 % of control; the T/C (dose: 200.0 mg/kg/injection, schedule: Q01DX009 (ip), vehicle: saline) is 120 % of control; the T/C (dose: 300.0 mg/kg/injection, schedule: Q01DX009 (ip), vehicle: saline) was 114 % of control.

On to `CCN(CC)P(=O)(N1CC1)N1CC1`, for which the T/C is, setting by setting: (dose: 6.25 mg/kg/injection, schedule: Q01DX009 (ip), vehicle: saline) 169 % of control; (dose: 12.5 mg/kg/injection, schedule: Q01DX009 (ip), vehicle: saline) 243 % of control; (dose: 12.5 mg/kg/injection, schedule: Q04DX003 (ip), vehicle: saline) 175 % of control; (dose: 25.0 mg/kg/injection, schedule: Q01DX009 (ip), vehicle: saline) 86 % of control; (dose: 25.0 mg/kg/injection, schedule: Q04DX003 (ip), vehicle: saline) 245 % of control.

`COc1ccc2c(c1)[C@@]13CCCCC1[C@@H](C2)NCC3` (some centres undefined): the T/C under setting [6] is 101 % of control.

For the molecule `COc1ccc([N+](=O)[O-])c2ccc(C(=O)O)nc12`, the T/C under setting [8] is 103 % of control, the T/C under setting [9] was 97 % of control and the T/C under setting [10] was 110 % of control.

With `O=C1Oc2nc3ccccc3cc2/C1=C/c1ccccc1`, the T/C runs as follows: (dose: 100.0 mg/kg/injection, schedule: Q04DX002 (ip), vehicle: saline with Tween-80) 89 % of control; under setting [7], 92 % of control; (dose: 400.0 mg/kg/injection, schedule: Q04DX002 (ip), vehicle: saline with Tween-80) 99 % of control.

As for `S=C(NNc1nnc(-c2ccccc2)c(-c2ccccc2)n1)NC1CCCCC1`, the T/C reads like this: under setting [11], 93 % of control; under setting [12], 88 % of control.

For `COc1ccc(/C(=N\N)C2=NNC3(CCCCC3)NN2)cc1`, the T/C under setting [1] is 94 % of control, the T/C under setting [2] is 93 % of control and the T/C under setting [3] is 96 % of control.

As to `O=C(NN=C(c1ccccc1)c1ccccc1)C(Cl)Cl`, the T/C is 99 % of control (dose: 42.0 mg/kg/injection, schedule: Q01DX009 (ip), vehicle: saline with Tween-80); 97 % of control (dose: 84.0 mg/kg/injection, schedule: Q01DX009 (ip), vehicle: saline with Tween-80); 97 % of control (dose: 168.0 mg/kg/injection, schedule: Q01DX009 (ip), vehicle: saline with Tween-80).

As to `CC=C/C=C/[C@@H]1O[C@](O)([C@H](CC)C(=O)NC/C=C/C=C(\C)[C@@H](OC)[C@@H](C)[C@@H]2O[C@H](/C=C/C=C/C=C(\C)C(=O)c3c(O)cc[nH]c3=O)[C@H](O)[C@@H]2O)[C@H](O)[C@H](O)C1(C)C`, the T/C is, setting by setting: (dose: 4.5 mg/kg/injection, schedule: Q01DX009 (ip), vehicle: Klucel (hydroxypropylcellulose) (HPC)) 108 % of control; (dose: 9.0 mg/kg/injection, schedule: Q01DX009 (ip), vehicle: Klucel (hydroxypropylcellulose) (HPC)) 108 % of control; (dose: 18.0 mg/kg/injection, schedule: Q01DX009 (ip), vehicle: Klucel (hydroxypropylcellulose) (HPC)) 104 % of control; (dose: 36.0 mg/kg/injection, schedule: Q01DX009 (ip), vehicle: Klucel (hydroxypropylcellulose) (HPC)) 103 % of control; under setting [1], 98 % of control; under setting [2], 99 % of control. Further, the T/C reads like this: under setting [3], 99 % of control; under setting [4], 102 % of control.

Regarding `COC1C(/C=[N+](\C)[O-])OC2OC(C)(C)OC21` (centres undefined), the T/C runs as follows: under setting [8], 102 % of control; under setting [9], 100 % of control; under setting [10], 93 % of control.

Consider `CCCC(NC(=O)OCc1ccccc1)C(=O)NC(Cc1ccc(O)cc1)C(N)=O` (centres undefined) (Cbz-[Nva]-Tyr-NH2; configuration not given here), for which the T/C reads like this: (dose: 50.0 mg/kg/injection, schedule: Q01DX005 (ip), vehicle: Klucel (hydroxypropylcellulose) (HPC)) 92 % of control; (dose: 100.0 mg/kg/injection, schedule: Q01DX005 (ip), vehicle: Klucel (hydroxypropylcellulose) (HPC)) 100 % of control; (dose: 200.0 mg/kg/injection, schedule: Q01DX005 (ip), vehicle: Klucel (hydroxypropylcellulose) (HPC)) 88 % of control.

Regarding `CCOc1ccc(C(C#N)N(C)C)cc1OCC` (centres undefined), the T/C under setting [13] was 105 % of control; the T/C under setting [14] was 100 % of control; the T/C under setting [5] is 86 % of control and 92 % of control.

For `Cc1ccc(S(=O)(=O)OC2C(OCc3ccccc3)OCC(O)C2O)cc1` (centres undefined), the T/C under setting [11] is 102 % of control; the T/C under setting [12] is 100 % of control; the T/C (dose: 200.0 mg/kg/injection, schedule: Q01DX005 (ip), vehicle: saline with Tween-80) was 100 % of control.

For `O=C(OC1(c2ccc3ccccc3c2)OC(=O)c2ccccc21)c1ccccc1C(=O)c1cccc2ccccc12` (centres undefined), the T/C is, setting by setting: (dose: 100.0 mg/kg/injection, schedule: Q01DX001 (ip), vehicle: Klucel (hydroxypropylcellulose) (HPC)) 92 % of control; (dose: 200.0 mg/kg/injection, schedule: Q01DX001 (ip), vehicle: Klucel (hydroxypropylcellulose) (HPC)) 91 % of control; (dose: 400.0 mg/kg/injection, schedule: Q01DX001 (ip), vehicle: Klucel (hydroxypropylcellulose) (HPC)) 91 % of control.

Turning to `O=C1CC(C(=O)N2Cc3cc4ccccc4nc3C2)CO1` (centres undefined), the T/C by setting is: (dose: 3.13 mg/kg/injection, schedule: Q01DX009 (ip), vehicle: saline with Tween-80) 100 % of control and 98 % of control; (dose: 6.25 mg/kg/injection, schedule: Q01DX009 (ip), vehicle: saline with Tween-80) 99 % of control and 100 % of control and 115 % of control; under setting [13], 106 % of control and 124 % of control and 98 % of control; under setting [14], 100 % of control (2×) and 108 % of control; under setting [5], 100 % of control.
